Laboratory results taken from article PMC10605077, “In Vitro and In Silico Antiviral Activity of Di-Halogenated Compounds Derived from L-Tyrosine against Human Immunodeficiency Virus 1 (HIV-1)” (Current Issues in Molecular Biology, 2023).
pIC50: −log10 of the molar value. Like-named read-outs stand apart in the source and are kept apart here.

Assays:
MTT cytotoxicity assay = format: cell-based; details: human; TZM-bl cells, MTT, 48 h
Method: The in vitro cytotoxic effect of the di-halogenated compounds on TZM-bl cells was determined with the MTT (3-(4,5-Dimethylthiazol-2-yl)-2,5-diphenyltetrazolium bromide) assay (Sigma-Aldrich, St. Louis, MO, USA). For this purpose, 1.2 × 10^5 cells/well were seeded in 96-well plates, which were incubated at 37 °C and 5% CO2 for 24 h. DMEM was used as a negative control and serial two-fold dilutions of the compounds were performed at 9.37 to 300 μM in DMEM supplemented with 5% FBS. A total of 100 μL/well of each dilution was added and incubated for 48 h. Subsequently, the cells were washed 2 times with 1X PBS, and 30 μL of MTT solution (2 mg/mL) was added and incubated for 2 h at 37 °C, in a light-protected culture. Then, 100 µL of DMSO was added to dissolve the formazan crystals, placed in shaking for 15 min, and absorbance reading was performed at 570 nm, using the Microplate Spectrophotometer (Thermo Scientific™ Multiskan™ GO, Waltham, MA, USA). Two independent experiments evaluated each experimental condition in quadruplicate (n = 8). The percentage of viability was calculated concerning the absorbance of the controls without a compound (100% viability). The 50% cytotoxic concentration was defined as the concentration of each compound that can reduce cell viability to 50% of the untreated cell control. CC50 was calculated and analyzed with GraphPad Prism version 8.0.1 (GraphPad Software, Inc., San Diego, CA, USA).

HIV-1 BaL (R5) = assay: Anti-HIV activity in infected TZM-bl cells (luciferase), pre- and post-infection treatment; format: cell-based, Human Immunodeficiency Virus Type 1 (HIV-1); details: for anti-HIV activity against R5 strain in words: HIV-1 BaL; for pIC50: HIV-1 BaL (R5), luciferase, 48 h
Method: (§1) TZM-bl cells were plated in a flat-bottom 96-well plate (Corning Inc., Corning, New York, NY, USA) at the concentration of 1.2 × 10^5 cells/well and incubated for 24 h at 37 °C before the addition or not of each compound at non-cytotoxic concentrations (pre-infection treatment). Then, 1 h later the treatment was removed, and the infection was performed by adding 10 ng/mL of HIV-1IIIB p24 (X4) or 2 ng/mL of HIV-1 BaL (R5). After 3 h, the virus was removed and washed, and the compound dilutions were added again (post-infection treatment). Additionally, three wells were left for the negative control (cells without treatment or infection), the positive control of infection (cells infected with the virus without treatment), and the positive control of inhibition (AZT). Antiviral activity was quantified 48 h after treatment by measuring luciferase activity, which is directly proportional to the number of infectious virus particles in the sample [23]. The luciferase activity was quantified via luminescence emitted by the cells using Bright-GloTM Luciferase Assay System (Promega Corp., Madison, WI, USA), following the manufacturer’s instructions. Briefly, 100 μL of the reagent was added to 100 μL of TZM-bl cells and incubated for at least 2 min, protected from light. Relative light units (RLUs) were measured using the multi-mode plate reader (Thermo ScientificTM VarioskanTM LUX). Each experimental condition was performed in triplicate in two independent experiments (n = 6). The percentage inhibition was calculated as follows: 100 − (RLU of treated cells − RLU of uninfected cells/RLU of infection control − RLU of uninfected cells) × 100.

HIV-1IIIB (X4) = assay: as above; format: cell-based, Human Immunodeficiency Virus Type 1 (HIV-1); details: for anti-HIV activity against X4 strain in words: HIV-1IIIB; for inhibition at 18 µM / inhibition at 37 µM / inhibition at 75 µM / inhibition at 150 µM: Human immunodeficiency virus 1, TZM-bl, read-out: Percentage inhibition of HIV-1IIIB (X4 strain) replication
Method: as §1

[1] = Viability assay of PBMC, flow cytometry with viability dye; format: cell-based, Human; details: human, PBMC stimulated with PHA and IL-2; all concentrations tested (18.75 μM up to 150 μM), 7 days; read-out: viability level on PBMCs
Method: PBMCs were thawed and let in the culture in RPMI with 10% fetal bovine serum (FBS) (Gibco, Grand Island, NY, USA) for 24 h before each experiment. Cells were stimulated for 48 h with 8 μg/mL of Phytohemagglutinin-PHA (Sigma-Aldrich, St. Louis, MO, USA) and 50 UI/mL of IL-2 (Peprotech, Rocky Hill, CT, USA). In the presence of various concentrations of di-halogenated compounds derived from L-Tyrosine, 2 × 10^5 cells per well were treated and resuspended in 200 µL of fresh medium with 20 UI/mL of IL-2 and incubated in 96-well culture plates for 7 days. After 7 days post-treatment, cell viability was determined using flow cytometry. Briefly, cells were stained with fixable viability dye eFluor 506 (eBioscience, Leicestershire, UK) as detailed in the manufacturer’s protocol for 30 min in the dark. Later, cells were washed and resuspended in PBS, and the percentage of viable cells was measured instead in the LS Fortessa cytometer (BD Biosciences, Franklin Lakes, NJ, USA). Data were analyzed using FlowJo version 10.5.3 (FlowJo, LLC, Ashland, OR, USA).

[2] = test system: HIV-GFP-VSV-G reporter virus; assay: microbe, parasite or virus in culture; format: cell-based, HIV-1; details: Human immunodeficiency virus 1, TZM-bl, read-out: percentage inhibition of HIV-GFP-VSV-G replication
[3] = Human immunodeficiency virus 1, BAL, 37 µM, TZM-bl cells, read-out: Percentage inhibition of HIV-1 BaL replication
[4] = Human immunodeficiency virus 1, BAL, 75 µM, TZM-bl cells, read-out: Percentage inhibition of HIV-1 BaL replication
[5] = Human immunodeficiency virus 1, BAL, 150 µM, TZM-bl cells, read-out: Percentage inhibition of HIV-1 BaL replication
[6] = Human immunodeficiency virus 1, BAL, 18 µM, TZM-bl cells, read-out: Percentage inhibition of HIV-1 BaL replication
[7] = Human immunodeficiency virus 1, BAL, TZM-bl, read-out: Percentage inhibition of HIV-1 BaL replication

| SMILES | CC50 at 48 h (MTT cytotoxicity assay) [µM] | anti-HIV activity against R5 strain in words (HIV-1 BaL (R5); TZM-bl cells) | inhibition at 37 µM (HIV-1 BaL (R5); [3]) [%] | inhibition at 75 µM (HIV-1 BaL (R5); [4]) [%] | inhibition at 150 µM (HIV-1 BaL (R5); [5]) [%] | anti-HIV activity against X4 strain in words (HIV-1IIIB (X4); TZM-bl cells) | inhibition at 18 µM (HIV-1IIIB (X4); 18 µM, TZM-bl cells) [%] | inhibition at 37 µM (HIV-1IIIB (X4); 37 µM, TZM-bl cells) [%] | inhibition at 75 µM (HIV-1IIIB (X4); 75 µM, TZM-bl cells) [%] | inhibition at 150 µM (HIV-1IIIB (X4); 150 µM, TZM-bl cells) [%] | inhibition at 18 µM (HIV-1 BaL (R5); [6]) [%] | further results |
| --- | --- | --- | --- | --- | --- | --- | --- | --- | --- | --- | --- | --- |
| C[N+](C)(C)[C@@H](Cc1cc(Cl)c(O)c(Cl)c1)C(=O)O [TDC-3M] | > 300 | showed antiviral activity | 20.4 | 39.7 | 29.6 | no antiviral activity | -111 | 9.6 | 8.1 | 15.1 |  | inhibition at 300 µM (HIV-1 BaL (R5); Human immunodeficiency virus 1, BAL, 300 µM, TZM-bl cells, read-out: Percentage inhibition of HIV-1 BaL replication): 25.9% |
| C[N+](C)(C)CCc1cc(Cl)c(O)c(Cl)c1 [YDC-3M] | 39.9 |  | 42.3 | 33.4 | 27.5 |  | 41 | -25.7 | 31.2 | 29.9 | 50.2 | viability at 7 days [1]: > 90%; pIC50 (HIV-1 BaL (R5); TZM-bl cells): 4.42; pIC50 (HIV-1 BaL (R5); Human immunodeficiency virus 1, BAL, TZM-bl, TZM-bl cells): 4.43; SI (HIV-1 BaL (R5); selectivity index against HIV-1 BaL (CC50 and IC50 of Table 3)): 1.07; pIC50 (HIV-1IIIB (X4); Human immunodeficiency virus 1, HIV-1IIIB (X4), TZM-bl cells, luciferase, 48 h): 4.65; inhibition at 150 µM [2]: 12.5% |
| C[N+](C)(C)[C@@H](Cc1cc(Br)c(O)c(Br)c1)C(=O)O [TDB-3M] |  | did not inhibit the replicative activity | -9.6 | -18 | -61.9 | did not inhibit the replicative activity | 2.7 | 21.6 | -15.7 | -22.4 | -20.5 |  |
| COc1c(Br)cc(C[C@@H](C(=O)O)[N+](C)(C)C)cc1Br [TODB-3M] |  | showed no activity | -43.3 | -17.7 | -9.2 | showed no activity | 12 | -41.1 | 3.2 | -34 | -26 |  |
| COc1c(Br)cc(CCN(C)C)cc1Br [YODB-2M] |  |  |  |  |  |  |  |  |  |  |  | inhibition at 18 µM (HIV-1 BaL (R5); [7]): -51.1%; inhibition at 37 µM (HIV-1 BaL (R5); [7]): -73.9%; inhibition at 75 µM (HIV-1 BaL (R5); [7]): -88.5%; inhibition at 150 µM (HIV-1 BaL (R5); [7]): -14.9%; inhibition at 18 µM (HIV-1IIIB (X4)): -24.6%; inhibition at 37 µM (HIV-1IIIB (X4)): -20%; inhibition at 75 µM (HIV-1IIIB (X4)): -20.2%; inhibition at 150 µM (HIV-1IIIB (X4)): -17% |
| COc1c(Br)cc(CC[N+](C)(C)C)cc1Br [YODB-3M] | 78.7 |  | -14.1 | -9 | 9.3 |  | -3.1 | -10.5 | 20.3 | 13.1 | -25.1 |  |
